The values below are quoted from earlier work in patent publication US6046331A, “Imidazolones and their use in treating benign prostatic hyperplasia and other disorders” (Synaptic Pharmaceutical Corporation, priority 1998, dated 2000).

The conditions of data set [1]: in vivo; cited from earlier work.
For data set [2] the following is noted: cited from earlier work.

With `Clc1cccc(Cl)c1N=C1NCCN1` [clonidine], the side effects result in data set [1] was “dry mouth and sedation”. Consider `CC(COc1ccccc1)N(CCCl)Cc1ccccc1` (stereo not shown) [phenoxybenzamine], for which the side effects entry in data set [1] was “significant side effects such as dizziness and asthenia”. In data set [2], the “relieving the symptoms of / treating BPH” value is “useful in relieving the symptoms of BPH”. Consider `COc1cc2nc(N3CCN(C(=O)c4ccco4)CC3)nc(N)c2cc1OC` [prazosin], for which the side effects entry in data set [1] is “untoward side effects”. Besides, the “relieving the symptoms of / treating BPH” value in data set [2] is “useful for treating BPH”. Consider `COc1cc2nc(N3CCN(C(=O)C4CCCO4)CC3)nc(N)c2cc1OC` (stereo not shown) [terazosin], for which the side effects entry in data set [1] is “untoward side effects”. In addition, the “relieving the symptoms of / treating BPH” value in data set [2] is given as “useful for treating BPH”.
